Reference: patent publication US9597347B2, “Compositions for treating obesity and insulin resistance disorders” (President and Fellows of Harvard College, priority 2003, dated 2017)

Key:
NIH3T3 cells = experiment: Adipocyte differentiation and fat content by Oil Red O staining, NIH3T3 cells; assay type: cell-based
Description: To obtain evidence that resveratrol affects fat metabolism in a physiologically relevant cell, we examined the effect of increasing concentrations of resveratrol on 3T3-L1 and NIH3T3 cell differentiation and fat content. 3T3-L1 or NIH3T3 cells were grown to confluence and allowed to pack in for 2 days at which point differentiation was initiated by addition of isobutylmethylxanthine, dexamethasone and insulin in the presence of vehicle (ethanol alone) or resveratrol at concentrations of 0, 12.5 and 25 μM. After 10 days of differentiation, fat content was assessed by Oil Red O staining, as described below. The results, which are shown in FIG. 12, indicate that concentrations of 25 μM or higher resveratrol decreased the quantity of cellular fat in 3T3-L1 and NIH3T3 cells. The results in NIH3T3 cells confirm the results obtained in C. elegans.
To further examine whether resveratrol activation of sir2 could promote fat mobilization or inhibition of differentiation in mammalian cells, we infected growing cells with wild-type SIRT1 or a deacetylase deficient form of SIRT1. […]
3T3-L1 and NIH3T3 cells were maintained in DMEM plus 10% calf serum. […] The staining of adipocytes with Oil Red-O and quantitation was performed as described previously (Ramirez-Zacarias J L, Castro-Munozledo F, Kuri-Harcuch W. Histochemistry. 1992 July; 97(6):493-7). […]

phosphorylation of ACC = experiment: Western blot of ACC phosphorylation in HEP3B human hepatoma cells; assay type: cell-based; details: resveratrol-treated cells with SIRT1 overexpressed or knocked down
Description: Similar results were also observed for HEP3B human hepatoma cells. In this case phosphorylation of ACC was measured in cells were SIRT1 was overexpressed (see FIG. 9, 4 right lanes) and in cells were SIRT1 was knocked down (FIG. 9, left lane). […] Tubulin served as a loading control.

[1] = system: DAF-16 mutant worms (mgDf47); experiment: Nile Red staining of fat accumulation in DAF-16 mutant worms (mgDf47); assay type: in vivo, C. elegans; details: defective in insulin-signaling
Description: Sir2.1, which is activated by resveratrol, acts via the transcription factor DAF-16 to prolong lifespan in […] (Tissenbaum and Guarente (2001) Nature 410:227).
C. elegans strains were maintained as described at 25° C., except when noted (Brenner (1974) Genetics 77:71). The wild type reference strain was N2 Bristol; the mutant strains were: sir-2.1(ok434), T01C8.1(ok524), and daf-16 (mgDf47). Daf-16 (mgDf47) was obtained from the Ruvkun laboratory, MGH; all other strains were obtained from the Caenorhabditis Genetics Center (from C. Elegans Gene Knockout Consortium).
Synchronized starved L1 worms were grown in the presence of Nile Red. Strains were grown on NGM plates at 25° C. for approximately 48 hours until the young adult stage was reached. 20-30 young adult worms were then washed 2× with M9 buffer and transferred to new NGM/Nile red experimental plates that contained either OP50 or HTT5 E. coli carrying the L4440 RNAi control vector. For experiments comparing the effect of nicotinamide and resveratrol on fat mobilization, OP50 plates were coated with vehicle alone or Nicotinamide (in PBS), or vehicle alone and Resveratrol (in Ethanol or DMSO).

`Oc1ccc(/C=C/c2cc(O)cc(O)c2)cc1` [resveratrol, 3,5,4′-Trihydroxy-trans-stilbene] was tested, and the “concentrations that decreased the quantity of cellular fat” value (NIH3T3 cells; 10 days of differentiation, 0, 12.5 and 25 μM tested, Oil Red O) was at least 25 µM, the “decrease in fat content” value (NIH3T3 cells; cells expressing SIRT1 deacetylase deficient mutant (SIRT1ΔHY), 0, 12.5 or 25 μM, eight days) was “partially reduced” and the “phosphorylation of ACC” value (phosphorylation of ACC) was “Phosphorylation of ACC was not affected”. For the same compound, the “fat mobilization and fat accumulation” value [1] was “stimulates fat mobilization and a decrease in fat accumulation”.
